Consider 8 compounds from US12576087B2, “Aryloxypiperidine pyrazole compounds as indoleamine 2,3-dioxygenase inhibitors” (Merck Sharp & Dohme LLC, priority 2018, dated 2026).

Chain of IDO1 (P14902 whole entry): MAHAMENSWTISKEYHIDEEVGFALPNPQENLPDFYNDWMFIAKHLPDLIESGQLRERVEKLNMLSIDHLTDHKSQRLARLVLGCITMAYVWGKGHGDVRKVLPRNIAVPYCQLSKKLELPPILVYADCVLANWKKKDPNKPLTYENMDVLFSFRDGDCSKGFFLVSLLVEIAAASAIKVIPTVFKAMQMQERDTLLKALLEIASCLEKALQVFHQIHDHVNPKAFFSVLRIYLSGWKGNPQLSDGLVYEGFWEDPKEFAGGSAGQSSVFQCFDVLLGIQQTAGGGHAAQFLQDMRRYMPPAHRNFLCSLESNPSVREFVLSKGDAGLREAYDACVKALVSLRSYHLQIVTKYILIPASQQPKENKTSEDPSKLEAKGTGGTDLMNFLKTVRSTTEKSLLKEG

The assay addresses IDO1 (Homo sapiens, UniProt P14902). As to the kind of experiment: IDO1 Human Whole Blood Assay. It is filed as cell-based. The settings on record: WBLD taken as whole blood; read-out: WBLD IC50. Here is the method: Compounds to be tested were serially diluted in ten 3-fold steps in DMSO starting from 10 mM. 3 μL of compound dilutions or DMSO alone were then dispensed from the dilution plate into a polypropylene 96-well assay plate containing 97 μL of RPMI medium using an Echo 555 acoustic liquid handler (Labcyte). LPS and IFNγ was prepared in RPMI medium to a 10× of final conc. (1000 ng/mL), final concentration is 100 ng/mL.
Human whole blood was drawn in sodium heparin coated tubes from healthy internal donors. 240 μL of blood was transferred to each of the wells of a v-bottom 96 well plate. 30 μL of compound was transferred from intermediate dilution plate, and incubated for 15 min. 30 μL from stimulants was then transferred to blood and mixed thoroughly. Plate was covered with breathable membrane and incubated at 37° C. for overnight (18 h).
On day 2, isotope labeled standard solutions of kunurenine and tryptophan was made in water at 10× concentration and 30 μL was added to the blood at 3 μM final concentration. The assay plates were centrifuged at 300×G for 10 min with no brake to separate plasma from red blood cells. 60 μL of plasma samples was removed without disturbing red blood cells. Plasma was diluted with RPMI in 1:1 ratio and proteins were precipitated out with two volumes of Acetonitrile. The plates were centrifuged at 4000×G for 60 min. 20 μL of supernatant was carefully transferred to a 384 well plate containing 40 μL of 0.1% formic acid in water and analyzed by LC/MS/MS.
LC/MS/MS analyses were performed using Thermo Fisher's LX4-TSQ Quantum Ultra system. This system consists of four Agilent binary high-performance liquid chromatography (HPLC) pumps and a TSQ Quantum Ultra triple quadrupole MS/MS instrument. For each sample, 5 μL were injected onto an Atlantis T3 column (2.1 mm×150 mm, 3 μm particle size) from Waters. The mobile phase gradient pumped at 0.8 mL/min was used to elute the analytes from the column at 25° C. The elution started at 0% B increasing linearly to 25% B at 6.5 min, holding at 25% for 1 min, re-equilibrating to 10 min. Mobile phase A consisted of 0.1% formic acid in water. Mobile phase B consisted of 0.1% of formic acid in acetonitrile. Data were acquired in positive mode using a HESI interface. The operational parameters for the TSQ Quantum Ultra instrument were a spray voltage of 4000 V, capillary temperature of 380° C., vaporizer temperature 400° C., shealth gas 60 arbitrary units, Aux gas 20 arbitrary units, tube lens 85 and collision gas 1.2 mTorr. SRM chromatograms of kynurenine (Q1: 209.2>Q3:94.0) and internal standard (Q1: 215.3>Q3:98.2) were collected for 90 sec. The peak area was integrated by Xcalibur Quan software. The ratios between the kynurenine generated in the reaction and 2D6-Kynurenine spiked-in internal standard were used to generate percentage inhibition and IC50 values. Compounds were titrated and IC50's were calculated by 4 parameter sigmoidal curve fitting formula.
The IC50 is the concentration that gives 50% inhibition. Consider `Cc1ccccc1OC1CCN(C(=O)Cn2nc(C(=O)N3CCC(O)(CF)CC3)c3c2CCCC3)CC1` [Example 26, 2-(3-(4-(fluoromethyl)-4-hydroxypiperidine-1-carbonyl)-4,5,6,7-tetrahydro-1H-indazol-1-yl)-1-(4-(o-tolyloxy)piperidin-1-yl)ethanone], for which the IC50 was 93.8 nM.

Consider `Cc1ccccc1OC1CCN(C(=O)Cn2nc(C(=O)N3CCC(F)(CO)CC3)c3c2CCC3)CC1` [Example 30, 2-(3-(4-fluoro-4-(hydroxymethyl)piperidine-1-carbonyl)-5,6-dihydrocyclopenta[c]pyrazol-1(4H)-yl)-1-(4-(o-tolyloxy)piperidin-1-yl)ethanone], for which the IC50 came out at 188 nM.

Consider `Cc1ccc(OC2CCN(C(=O)Cn3nc(C(=O)N4C[C@@H](C)O[C@@H](C)C4)c4c3CCC4)CC2)cc1` [Example 95, 2-{3-[(2R,6S)-2,6-dimethylmorpholine-4-carbonyl]-5,6-dihydrocyclopenta[c]pyrazol-1(4H)-yl}-1-[4-(4-methylphenoxy)piperidin-1-yl]ethan-1-one], for which the IC50 amounted to 360 nM.

Turning to `C[C@@H]1CN(C(=O)c2nn(CC(=O)N3CCC(Oc4cc(F)ccc4Cl)CC3)c3c2CCC3)C[C@H](C)O1` [Example 133, 1-[4-(2-chloro-5-fluorophenoxy)piperidin-1-yl]-2-{3-[(2R,6S)-2,6-dimethylmorpholine-4-carbonyl]-5,6-dihydrocyclopenta[c]pyrazol-1(4H)-yl}ethan-1-one], the IC50 worked out at 150 nM.

Regarding `Cc1cc(F)ccc1OC1CCN(C(=O)Cn2nc(C(=O)N3CCC(OCCO)CC3)c3c2CCCC3)CC1` [Example 76, 1-[4-(4-fluoro-2-methyl-phenoxy)-1-piperidyl]-2-[3-[4-(2-hydroxyethoxy)piperidine-1-carbonyl]-4,5,6,7-tetrahydroindazol-1-yl]ethanone], the IC50 is 59.8 nM.

Turning to `Cc1cc(F)ccc1OC1CCN(C(=O)Cn2nc(C(=O)N3CCC(F)(CO)CC3)c3c2CCCC3)CC1` [Example 78, 2-[3-[4-fluoro-4-(hydroxymethyl)piperidine-1-carbonyl]-4,5,6,7-tetrahydroindazol-1-yl]-1-[4-(4-fluoro-2-methyl-phenoxy)-1-piperidyl]ethanone], the IC50 was found to be 19.7 nM.

On to `C[C@@H]1CN(C(=O)c2nn(CC(=O)N3CCC(Oc4ccc(F)cc4Cl)CC3)c3c2CCC3)C[C@H](C)O1` [Example 117, 1-[4-(2-chloro-4-fluorophenoxy)piperidin-1-yl]-2-{3-[(2R,6S)-2,6-dimethylmorpholine-4-carbonyl]-5,6-dihydrocyclopenta[c]pyrazol-1(4H)-yl}ethan-1-one], for which the IC50 was 490 nM.

As for `Cc1ccccc1NC1CCN(C(=O)Cn2nc(C(=O)N3CCC(F)(CO)CC3)c3c2C[C@H]2C[C@@H]32)CC1` [Example 176, 2-((3bR,4aR)-3-(4-Fluoro-4-(hydroxymethyl)piperidine-1-carbonyl)-3b,4,4a,5-tetrahydro-1H-cyclopropa[3,4]cyclopenta[1,2-c]pyrazol-1-yl)-1-(4-(o-tolylamino)piperidin-1-yl)ethan-1-one], the IC50 came to 396 nM.
